Measurements as given in PMC5078989, “Targeted inhibition of the COP9 signalosome for treatment of cancer” (Nature Communications, 2016).

Experiments:
CYP3A4 = CYP3A4 (Homo sapiens, UniProt P08684); test: CYP3A4 inhibition; type: in vitro ADME
Description: Table 2 CYP3A4 inhibition and key pharmacokinetic parameters in mice of CSN5 inhibitors. | column: CSN5i-2; CSN5i-3

human MMP8 = target: T1, human MMP8 (Homo sapiens, UniProt P22894); test: Selectivity assay MMP8; type: biochemical
T1 construct: human MMP8 (Uniprot P22894), amino acids 100–262; made in house; host or cells: E. coli
Procedure: (§1) All biochemical assays were performed at room temperature in 384-well plates in a total volume of 25.25 μl per well. Test compounds were dissolved in 90% (v/v) DMSO/water. For the assays, 250 nl of compound solution was added per well, followed by addition of 12.5 μl protease solution. After 70 min of pre-incubation at room temperature, the reactions were started by addition of 12.5 μl substrate solution and followed either by measuring fluorescence intensity (rhodamine 110-based substrates) or by fluorescence lifetime (PT14-based substrates). The effect of compound on enzymatic activity was obtained from the linear part of the progress curves and determined after 1 h (t=60 min). The final compound concentrations ranged from 100 μM to 1 nM.
(§2) Matrix metalloproteinases. Human MMP1 (Uniprot P03956), amino acids 1–469, expressed in and purified from stable transfected C127 cells; human MMP2 (Uniprot P08253), amino acids 1–660, expressed in and purified from insect cells (baculovirus expression system); human MMP8 (Uniprot P22894), amino acids 100–262, expressed in and purified from E. coli; human MMP9 (Uniprot P14780), amino acids 1–707, expressed in and purified from stable transfected 293 cells; human MMP12 (Uniprot P39900), amino acids 101–268, expressed in and purified from E. coli; human MMP13 (Uniprot P45452), amino acids 103–274, expressed in and purified from E. coli; human MMP14 (Uniprot P50281), amino acids 112–284, expressed in and purified from E. coli; human ADAM17 (Uniprot P78536), amino acids 1–670, expressed in and purified from insect cells (baculovirus expression system); substrate: Ac-C(PT14)-[…]-NH2 purchased from Biosyntan (product number 8069); enzyme concentrations: 3 nM (MMP1), 1 nM (MMP2), 3 nM (MMP8), 0.1 nM (MMP9), 0.5 nM (MMP12), 0.13 nM (MMP13), 0.005 nM (MMP14), 30 nM (ADAM17); substrate concentration: 0.8 μM; assay buffer: 100 mM Tris, pH 7.4, 100 mM NaCl, 10 mM CaCl2, 10 μM ZnCl2, 0.075% (v/v) Brij35.

human MMP12 = target: T2, human MMP12 (Homo sapiens, UniProt P39900); test: Selectivity assay MMP12; type: biochemical
T2 construct: human MMP12 (Uniprot P39900), amino acids 101–268; made in house; host or cells: E. coli
Procedure: as §1, §2

human MMP9 = target: T3, human MMP9 (Homo sapiens, UniProt P14780); test: Selectivity assay MMP9; type: biochemical
T3 construct: human MMP9 (Uniprot P14780), amino acids 1–707; made in house; host or cells: stably transfected 293 cells
Procedure: as §1, §2

human MMP13 = target: T4, human MMP13 (Homo sapiens, UniProt P45452); test: Selectivity assay MMP13; type: biochemical
T4 construct: human MMP13 (Uniprot P45452), amino acids 103–274; made in house; host or cells: E. coli
Procedure: as §1, §2

Human AMSHLP = target: T5, Human AMSHLP (Homo sapiens, UniProt Q96FJ0); test: Selectivity assay AMSHLP (ubiquitin-rhodamine110-glycine substrate); type: biochemical; details: JAMM domain protease
T5 construct: made in house; host or cells: E. coli
T5 sequence (Q96FJ0 1-436): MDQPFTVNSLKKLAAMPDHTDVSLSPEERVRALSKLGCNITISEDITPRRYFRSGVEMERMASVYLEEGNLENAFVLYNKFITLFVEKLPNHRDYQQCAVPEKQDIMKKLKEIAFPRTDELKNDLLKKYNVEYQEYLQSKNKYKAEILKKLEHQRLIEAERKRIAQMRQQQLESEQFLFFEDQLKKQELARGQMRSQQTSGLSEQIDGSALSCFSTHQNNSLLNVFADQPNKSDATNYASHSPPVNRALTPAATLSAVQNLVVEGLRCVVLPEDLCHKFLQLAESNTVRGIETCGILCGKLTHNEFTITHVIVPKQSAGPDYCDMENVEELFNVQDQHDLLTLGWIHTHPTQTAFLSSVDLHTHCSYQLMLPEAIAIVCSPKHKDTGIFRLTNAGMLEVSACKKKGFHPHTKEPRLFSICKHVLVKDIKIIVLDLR
Procedure: as §1
Human AMSHLP. Enzyme was expressed in and purified from E. coli; substrate: ubiquitin-rhodamine110-glycine was purchased from emp Biotech GmbH (Berlin, Germany; product number AS 09/12-A4); enzyme concentration: 4 nM; substrate concentration: 200 nM; assay buffer: 100 mM Tris/HCl at pH 7.5, 10 mM CaCl2, 100 mM NaCl, 10 μM ZnCl2, 0.005% (v/v) BRIJ 35 and 5 mM dithioerythritol (DTE).

human ADAM17 = target: T6, human ADAM17 (Homo sapiens, UniProt P78536); test: Selectivity assay ADAM17; type: biochemical
T6 construct: human ADAM17 (Uniprot P78536), amino acids 1–670; made in house; host or cells: insect cells (baculovirus)
Procedure: as §1, §2

human MMP2 = target: T7, human MMP2 (Homo sapiens, UniProt P08253); test: Selectivity assay MMP2; type: biochemical
T7 construct: human MMP2 (Uniprot P08253), amino acids 1–660; made in house; host or cells: insect cells (baculovirus)
T7 sequence (P08253 30-660): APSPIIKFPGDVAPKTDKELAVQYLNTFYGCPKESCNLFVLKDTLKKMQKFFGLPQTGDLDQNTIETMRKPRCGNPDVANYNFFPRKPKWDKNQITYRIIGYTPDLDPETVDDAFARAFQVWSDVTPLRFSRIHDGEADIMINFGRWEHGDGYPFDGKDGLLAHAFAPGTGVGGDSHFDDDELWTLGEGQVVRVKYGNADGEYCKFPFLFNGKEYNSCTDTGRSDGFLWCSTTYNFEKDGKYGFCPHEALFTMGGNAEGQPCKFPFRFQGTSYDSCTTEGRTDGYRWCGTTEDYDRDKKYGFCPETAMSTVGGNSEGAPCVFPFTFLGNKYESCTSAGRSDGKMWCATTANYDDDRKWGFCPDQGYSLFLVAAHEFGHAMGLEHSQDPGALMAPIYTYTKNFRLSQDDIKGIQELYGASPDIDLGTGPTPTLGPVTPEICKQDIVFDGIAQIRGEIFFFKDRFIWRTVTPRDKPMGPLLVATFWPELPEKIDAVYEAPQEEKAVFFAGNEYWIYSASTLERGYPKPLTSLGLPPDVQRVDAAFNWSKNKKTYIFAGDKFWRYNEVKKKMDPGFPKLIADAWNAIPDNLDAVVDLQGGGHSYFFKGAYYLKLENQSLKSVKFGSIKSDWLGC
Procedure: as §1, §2

T2 sequence (P39900 101-268): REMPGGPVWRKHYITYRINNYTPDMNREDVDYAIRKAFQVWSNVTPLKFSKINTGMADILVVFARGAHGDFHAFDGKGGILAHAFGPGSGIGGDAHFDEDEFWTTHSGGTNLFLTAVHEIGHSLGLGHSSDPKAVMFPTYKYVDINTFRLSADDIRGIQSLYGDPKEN
T3 sequence (P14780 20-707): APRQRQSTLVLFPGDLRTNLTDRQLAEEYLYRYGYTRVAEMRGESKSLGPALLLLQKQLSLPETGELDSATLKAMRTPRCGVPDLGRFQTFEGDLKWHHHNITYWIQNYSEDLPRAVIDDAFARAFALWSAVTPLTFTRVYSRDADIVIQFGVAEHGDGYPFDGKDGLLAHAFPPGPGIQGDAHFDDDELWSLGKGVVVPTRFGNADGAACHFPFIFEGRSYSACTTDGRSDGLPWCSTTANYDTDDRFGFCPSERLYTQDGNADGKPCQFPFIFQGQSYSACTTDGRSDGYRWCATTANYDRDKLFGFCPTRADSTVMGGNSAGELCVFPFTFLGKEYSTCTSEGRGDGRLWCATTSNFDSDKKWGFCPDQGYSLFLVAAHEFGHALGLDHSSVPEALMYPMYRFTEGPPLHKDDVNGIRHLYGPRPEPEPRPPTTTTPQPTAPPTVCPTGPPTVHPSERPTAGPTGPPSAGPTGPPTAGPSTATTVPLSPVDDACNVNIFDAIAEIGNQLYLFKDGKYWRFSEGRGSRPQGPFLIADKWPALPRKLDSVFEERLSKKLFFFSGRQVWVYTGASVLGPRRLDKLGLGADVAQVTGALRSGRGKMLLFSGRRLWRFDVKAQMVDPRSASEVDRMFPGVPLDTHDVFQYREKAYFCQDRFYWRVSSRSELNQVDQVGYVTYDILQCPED
T1 sequence (P22894 100-262): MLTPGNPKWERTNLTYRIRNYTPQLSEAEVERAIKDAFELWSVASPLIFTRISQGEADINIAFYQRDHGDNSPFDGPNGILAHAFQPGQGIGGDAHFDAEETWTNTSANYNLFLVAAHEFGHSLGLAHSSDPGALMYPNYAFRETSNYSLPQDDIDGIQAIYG
T6 sequence (P78536 18-670): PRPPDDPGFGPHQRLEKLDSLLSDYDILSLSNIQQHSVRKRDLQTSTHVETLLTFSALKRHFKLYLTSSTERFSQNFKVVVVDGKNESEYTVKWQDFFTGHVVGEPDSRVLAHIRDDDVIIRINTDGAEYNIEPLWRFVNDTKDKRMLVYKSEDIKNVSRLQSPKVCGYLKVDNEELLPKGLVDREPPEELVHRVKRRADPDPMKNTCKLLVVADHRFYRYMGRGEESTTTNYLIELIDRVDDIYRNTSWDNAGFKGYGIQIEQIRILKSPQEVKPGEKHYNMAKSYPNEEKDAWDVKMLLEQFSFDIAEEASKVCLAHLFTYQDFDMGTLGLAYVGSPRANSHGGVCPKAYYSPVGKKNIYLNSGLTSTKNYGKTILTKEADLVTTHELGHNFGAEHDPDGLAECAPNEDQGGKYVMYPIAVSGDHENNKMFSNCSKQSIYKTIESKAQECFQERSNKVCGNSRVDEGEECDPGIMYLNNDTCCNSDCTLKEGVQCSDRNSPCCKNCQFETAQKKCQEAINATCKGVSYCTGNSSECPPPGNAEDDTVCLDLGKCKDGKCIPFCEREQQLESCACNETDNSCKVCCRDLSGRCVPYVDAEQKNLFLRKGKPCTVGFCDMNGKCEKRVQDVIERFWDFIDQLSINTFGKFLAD
Chain of CYP3A4 (P08684 whole entry, species assumed): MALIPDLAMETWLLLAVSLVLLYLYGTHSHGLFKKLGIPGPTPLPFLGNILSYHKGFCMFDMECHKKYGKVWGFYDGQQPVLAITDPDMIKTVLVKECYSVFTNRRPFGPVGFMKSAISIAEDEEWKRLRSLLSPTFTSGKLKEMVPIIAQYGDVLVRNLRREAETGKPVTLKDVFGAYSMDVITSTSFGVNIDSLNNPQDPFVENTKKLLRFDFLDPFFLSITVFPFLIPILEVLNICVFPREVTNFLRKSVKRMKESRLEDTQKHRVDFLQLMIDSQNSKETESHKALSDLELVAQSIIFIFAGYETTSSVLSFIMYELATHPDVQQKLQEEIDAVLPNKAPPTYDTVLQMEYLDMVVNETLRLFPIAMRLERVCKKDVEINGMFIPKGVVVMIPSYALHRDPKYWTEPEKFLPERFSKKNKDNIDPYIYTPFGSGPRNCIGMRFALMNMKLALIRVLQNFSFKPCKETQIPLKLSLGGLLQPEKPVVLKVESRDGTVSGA

| Structure (SMILES) | IC50 (CYP3A4) [µM] | IC50 (human MMP8) [µM] | IC50 (human MMP12) [µM] | IC50 (human MMP9) [µM] | IC50 (human MMP13) [µM] | IC50 (Human AMSHLP) [µM] | IC50 (human ADAM17) [µM] | IC50 (human MMP2) [µM] |
| --- | --- | --- | --- | --- | --- | --- | --- | --- |
| COCc1ccccc1NCc1ccc([C@H]2[C@@H](O)CCCc3cncn32)c(-c2ccccc2Cl)c1 [CSN5i-2, (5S,6S)-5-(2′-chloro-5-(((2-(methoxymethyl)phenyl)amino)methyl)-[1,1′-biphenyl]-2-yl)-6,7,8,9-tetrahydro-5H-imidazo[1,5-a]azepin-6-ol] | < 0.5 | 59 ± 8 | > 100 | 3.8 ± 0.4 | > 100 | > 100 | > 100 | 89 ± 3 |
| COCc1ccccc1NCc1ccc([C@@H]2[C@H](O)CCCc3cncn32)c(-c2ccccc2Cl)c1 [CSN5i-2e, (5R,6R)-5-(2′-chloro-5-(((2-(methoxymethyl)phenyl)amino)methyl)-[1,1′-biphenyl]-2-yl)-6,7,8,9-tetrahydro-5H-imidazo[1,5-a]azepin-6-ol] | – | 48 ± 8 | > 100 | 3.2 ± 0.2 | > 100 | > 100 | > 100 | ≥ 90 |
| CC(C)n1nc(C(F)F)cc1C(=O)Nc1ccc([C@H]2[C@@H](O)CCCc3cncn32)c(-c2ccccc2)c1 [CSN5i-3, 3-(Difluoromethyl)-N-(6-((5S,6S)-6-hydroxy-6,7,8,9-tetrahydro-5H-imidazo[1,5-a]azepin-5-yl)-[1,1′-biphenyl]-3-yl)-1-isopropyl-1H-pyrazole-5-carboxamide] | 6.8 ± 1.8 | 14 ± 0.1 | > 100 | 7.4 ± 2 | > 100 | > 100 | > 100 | > 100 |
